Tested on: 005 GSC tumors
Assay: Flow cytometry of tumor-derived immune cells, 005 GSC tumors
Type: in vivo, C57BL/6 mice
Description: Mice and Intracranial Xenograft Tumor Models. Female C57BL/6 mice at 3 to 4 weeks of age were purchased from the Jackson Laboratory (#0000664). All animals were grouped by 5 mice per cage and maintained in IVC System (San Diego, CA) for a week before the experiment. All animal experiments were performed with the approval of the Institutional Animal Care and Use Committee (IACUC) at Northwestern University. The intracranial xenograft tumor models were established previously. In brief, mice were anesthetized by isoflurane through IMPAC6 Anesthesia System. Then a dental drill was used to open a small hole in the skull of mice 1.2 mm anterior and 3.0 mm lateral to the bregma. Mice were placed into the stereotactic apparatus, and 5 μL 005 GSC, CT2A, or GL261 cells in FBS-free culture medium were injected into the right caudate nucleus 3 mm below the surface of the brain using a 10 μL Hamilton syringe with an unbeveled 30-gauge needle. The incision was closed using Vetbond glue. Meloxicam (20 mg/kg, daily) was subcutaneously injected for pain relief for 3 days after surgery. Mice received the treatment with BAPN (2 g/L in drinking water) on day 4, SR9009 (100 mg/kg body weight, i.p.) daily for 10 days beginning at day 7 post-orthotopic injection, anti-PD1 (10 mg/kg body weight, i.p.) on days 11, 14, and 17 post-orthotopic injection, and/or clodronate liposomes (200 μL, once every 3 days) starting at day 4 post-orthotopic injection. Mice with neurological deficits or moribund appearance were sacrificed according to the IACUC protocol. At the end of the experiment, the brains of mice were collected, either fixed in 4% paraformaldehyde (PFA) (ThermoFisher Scientific, #J61899.AK) after transcardiac perfusion with PBS for optimal cutting temperature (OCT)-cryosectioning or processed using the percoll density gradient cell separation method to isolate tumor-derived immune cells for flow cytometry analysis.
Tumor-derived immune cells isolation. Mice with neurologic deficits or moribund appearance were sacrificed to harvest their brains. Immune cells in the brain tumors were isolated using the percoll density gradient cell separation method as previously described. In brief, after perfusion with PBS, brains were homogenized on ice with pre-cold 10 mL HBSS. Then cells were spun down at 1,500 rpm for 10 minutes at 4° C., and were resuspended in 30% Percoll (GE Healthcare, #17-0891-01). The solution was gently laid on top of the 70% Percoll and centrifuged at 1,200 g for 30 minutes at 4° C. with accelerator 7 and breaker 0. After removing myelin and debris, the interphase was collected and centrifuged at 1,500 rpm for 10 minutes at 4° C. […]
Flow cytometry. […] Samples were read through the BD FACSymphony or BD LSRFortessa flow cytometer and analyzed in FlowJo v10.8.1.

SMILES | CD45+CD3+CD8+CD69+ activated T cells | CD45+CD3+CD8+IFN-γ+ activated T cells
CCOC(=O)N1CCC(CN(Cc2ccc(Cl)cc2)Cc2ccc([N+](=O)[O-])s2)C1 (stereo not shown) [SR9009] | Increases | Increases
N#CCCN [BAPN, β-aminopropionitrile] | Increases | Increases
